Tested on: anti-M2 human monoclonal antibody Z3G1
Format: binding

| Substance | Signal (peptides that show specific binding to Z3G1) | Signal (peptides that bind to Z3G1) |
| --- | --- | --- |
| 1570 (MLLTEVETPIRNEWGCRCNDSSD; epitope peptide) [compound 1570] | 2126 | – |
| 1350 (MSLLCEVGMCLCTCV; epitope peptide) [compound 1350] | – | 2664 |
| 1295 (MSLLWEVETPIRNEWGCRCN; epitope peptide) [compound 1295] | – | 2531 |
| 1473 (CEVETPIRNESLLTEVETPCEVETPIRNE; epitope peptide; MISC_FEATURE (1)..(1): C is an attachment site for a CLIP; MISC_FEATURE (10)..(10): E is an attachment site for a CLIP; MISC_FEATURE (11)..(11): S is an attachment site for a CLIP; MISC_FEATURE (29)..(29): E is an attachment site for a CLIP) [compound 1473] | – | 2006 |
| 1576 (YLLTEVETPIRNEWGCRCNDSSD; epitope peptide) [compound 1576] | 1882 | – |
| 1278 (MSLYTEVETPIRNEWGCRCN; epitope peptide) [compound 1278] | – | 1313 |
| 1359 (CLLTEVCTPIRNE; epitope peptide) [compound 1359] | – | 1585 |
| 1303 (MSLLTEVHTPIRNEWGCRCN; epitope peptide) [compound 1303] | – | 2751 |
| 1444 (CEVETPIRNELLTEVETPICLTEVETPIR; epitope peptide; MISC_FEATURE (1)..(1): C is an attachment site for a CLIP; MISC_FEATURE (10)..(10): E is an attachment site for a CLIP; MISC_FEATURE (11)..(11): L is an attachment site for a CLIP; MISC_FEATURE (29)..(29): R is an attachment site for a CLIP) [compound 1444] | – | 2000 |
| 1292 (MSLLREVETPIRNEWGCRCN; epitope peptide) [compound 1292] | – | 2699 |
| 1334 (MSLLCEVGMCLLTEV; epitope peptide) [compound 1334] | – | 2676 |
| 1562 (SLLCEVGSCLCEC; epitope peptide) [compound 1562] | 2614 | – |
| 1445 (CVETPIRNEWLLTEVETPICLTEVETPIR; epitope peptide; MISC_FEATURE (1)..(1): C is an attachment site for a CLIP; MISC_FEATURE (10)..(10): W is an attachment site for a CLIP; MISC_FEATURE (11)..(11): L is an attachment site for a CLIP; MISC_FEATURE (29)..(29): R is an attachment site for a CLIP) [compound 1445] | – | 2280 |
| 1255 (MHLLTEVETPIRNEWGCRCN; epitope peptide) [compound 1255] | – | 2449 |
| 1551 (SLLCEVGSCLTEV; epitope peptide) [compound 1551] | 2499 | – |
| 1271 (MSLFTEVETPIRNEWGCRCN; epitope peptide) [compound 1271] | – | 2115 |
| 1394 (SLLCEVECPIRNEWG; epitope peptide) [compound 1394] | – | 2529 |
| 1330 (MSLLCEVECPIRNE; epitope peptide) [compound 1330] | – | 2606 |
| 1281 (MSLLEEVETPIRNEWGCRCN; epitope peptide) [compound 1281] | – | 2805 |
| 1274 (MSLNTEVETPIRNEWGCRCN; epitope peptide) [compound 1274] | – | 2787 |
| 1553 (CLLTEVGSLLCEV; epitope peptide) [compound 1553] | 2168 | – |
| 1534 (SLLCEVETPIRNEWGCRCNDSSD; epitope peptide) [compound 1534] | 2161 | – |
| 1514 (CVETPIRNEWLLTEVETPICETPIRNEWG; epitope peptide; MISC_FEATURE (1)..(1): C is an attachment site for a CLIP; MISC_FEATURE (10)..(10): W is an attachment site for a CLIP; MISC_FEATURE (11)..(11): L is an attachment site for a CLIP; MISC_FEATURE (29)..(29): G is an attachment site for a CLIP) [compound 1514] | 2575 | – |

| Substance | Signal (peptides that show specific binding to Z3G1) | Signal (peptides that bind to Z3G1) |
| --- | --- | --- |
| 1267 (MSILTEVETPIRNEWGCRCN; epitope peptide) [compound 1267] | – | 2582 |
| 1269 (MSVLTEVETPIRNEWGCRCN; epitope peptide) [compound 1269] | – | 2111 |
| 1589 (SLLVEVETPIRNEWGCRCNDSSD; epitope peptide) [compound 1589] | 1932 | – |
| 1560 (SLLCEVGCSCLCEV; epitope peptide) [compound 1560] | 2112 | – |
| 1568 (ILLTEVETPIRNEWGCRCNDSSD; epitope peptide) [compound 1568] | 1044 | – |
| 1272 (MSLHTEVETPIRNEWGCRCN; epitope peptide) [compound 1272] | – | 2058 |
| 1567 (HLLTEVETPIRNEWGCRCNDSSD; epitope peptide) [compound 1567] | 1946 | – |
| 1347 (MSLLCEVGMSLLTCV; epitope peptide) [compound 1347] | – | 2784 |
| 1388 (SLLCEVETPIRNECG; epitope peptide) [compound 1388] | – | 2107 |
| 1328 (MSLLCEVETPCRNE; epitope peptide) [compound 1328] | – | 2652 |
| 1393 (SLLCEVETCIRNEWG; epitope peptide) [compound 1393] | – | 2531 |
| 1337 (MCLLTEVGMSLCTEV; epitope peptide) [compound 1337] | – | 2513 |
| 1391 (SLLCEVETPICNEWG; epitope peptide) [compound 1391] | – | 2536 |
| 1321 (MCLLTEVETCIRNE; epitope peptide) [compound 1321] | – | 1948 |
| 1345 (MSCLCECGMSLLCEV; epitope peptide) [compound 1345] | – | 1307 |
| 1283 (MSLLGEVETPIRNEWGCRCN; epitope peptide) [compound 1283] | – | 2717 |
| 1556 (CSCLCEVGSLLCEV; epitope peptide) [compound 1556] | 1583 | – |
| 1384 (CLLCEVETPIRNEWG; epitope peptide) [compound 1384] | – | 2388 |
| 1260 (MNLLTEVETPIRNEWGCRCN; epitope peptide) [compound 1260] | – | 2733 |
| 1265 (MWLLTEVETPIRNEWGCRCN; epitope peptide) [compound 1265] | – | 2615 |
| 1369 (SLLTEVETPCRCE; epitope peptide) [compound 1369] | – | 1546 |
| 1396 (SLLCEVETPIRNEWG; epitope peptide) [compound 1396] | – | 2384 |

Source: patent US8932597B2 (priority 2008, dated 2015)
